In US9394284B2, “Compounds act at multiple prostaglandin receptors giving a general anti-inflammatory response” (Allergan, Inc., priority 2010, dated 2016):

Tests used:
Type in all cases: cell-based
[1] = biological target: T1, human prostanoid FP receptor (Homo sapiens, UniProt P43088); assay: FLIPR Ca2+ signaling antagonist assay, FP receptor stable cell line; details: HEK-293 EBNA stable cell line; standard agonist 17-phenyl-PGF2α; NA = inactive (no antagonism or Kb 10,000 nM); PAg, Ag not defined
T1 construct: expressed in transfected cells
Method in brief: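 Peak Fluo-4 fluorescence (ex 470–495, em 515–575 nm) was read for 3.5 min on FLIPR after agonist injection and expressed relative to 10^−6 M standard agonist. Cells were HEK-293 EBNA transfectants. Test compound was added 4.5 min beforehand at 0.1–30 μM, or 0.067–1 μM for TP.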

[2] = biological target: T2, human prostanoid DP1 receptor (Homo sapiens, UniProt Q13258); assay: FLIPR Ca2+ signaling antagonist assay, DP1 receptor stable cell line; details: HEK-293 EBNA stable cell line; standard agonist BW 245C; NA = inactive (no antagonism or Kb 10,000 nM); PAg, Ag not defined
T2 construct: expressed in transfected cells
T2 sequence (Q13258 1-359): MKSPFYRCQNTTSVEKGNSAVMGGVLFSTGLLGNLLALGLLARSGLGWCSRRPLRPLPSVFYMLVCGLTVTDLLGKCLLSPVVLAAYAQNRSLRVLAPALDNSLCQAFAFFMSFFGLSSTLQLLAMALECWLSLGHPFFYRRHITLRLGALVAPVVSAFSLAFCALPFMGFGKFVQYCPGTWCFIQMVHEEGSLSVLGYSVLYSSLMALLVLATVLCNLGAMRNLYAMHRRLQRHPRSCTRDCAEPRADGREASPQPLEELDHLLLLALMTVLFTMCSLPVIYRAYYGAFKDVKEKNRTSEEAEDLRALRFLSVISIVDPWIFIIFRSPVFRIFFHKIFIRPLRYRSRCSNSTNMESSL
Method in brief: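 Functional antagonism measured by Ca2+ flux at 37 °C. Agonist ranges were 10^−11 to 10^−5 M, or 10^−12 to 10^−6 M for TP with U-46619; PGE2 for EP1/EP3, BW 245C for DP1. Compound spanned 0.1–30 μM except TP, 0.067–1 μM.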

[3] = biological target: T3, human prostanoid EP2 receptor (Homo sapiens, UniProt P43116); assay: FLIPR Ca2+ signaling antagonist assay, EP2 receptor stable cell line; details: HEK-293 EBNA stable cell line; standard agonist PGE2; NA = inactive (no antagonism or Kb 10,000 nM); PAg, Ag not defined
T3 construct: expressed in transfected cells
Protocol: (§1) The above compounds were tested for PG antagonist activity as follows using human recombinant prostanoid receptor (DP1, EP1-4, FP, IP and TP) stable cell lines:
(§2) In order to measure the response of Gs and Gi coupled prostanoid receptors as a Ca^2+ signal, chimeric G protein cDNAs were used. Stable cell lines over-expressing human prostanoid DP1, EP1-4, FP, IP, and TP receptors were established as follows:
(§3) Briefly, human prostanoid DP1, EP2, and EP4 receptor cDNAs were co-transfected with chimeric Gqs cDNA containing a haemagglutanin (HA) epitope; human prostanoid EP3 receptors were co-transfected with chimeric Gqi-HA; human EP1, FP, IP, and TP receptor cDNAs were expressed with no exogenous G-proteins. Gqs and Gqi chimeric cDNAs (Molecular Devices, Sunnyvale, Calif., U.S.A.), as well as cDNAs of prostanoid receptors, were cloned into a pCEP4 vector with a hygromycin B selection marker. Transfection into HEK-293 EBNA (Epstein-Barr virus nuclear antigen) cells was achieved by the FuGENE 6 transfection Reagent (Roche Applied Science, Indianapolis, Ind., USA). Stable transfectants were selected according to hygromycin resistance. Because Gqs and Gqi contained an HA epitope, G-protein expression was detected by Western blotting analysis using anti-mouse HA monoclonal antibody and horseradish peroxidase (HRP)-conjugated secondary antibody, while functional expression of prostanoid receptors was detected by FLIPR screening (Matias et al., 2004). These stable cell lines were validated using previously published antagonists at 10 μM against serial dilutions of standard agonists by FLIPR functional assays for Ca^2+ Signaling (as described below).
(§4) Ca^2+ signaling studies were performed using a FLIPR TETRA system (Molecular Devices, Sunnyvale, Calif., USA) in the 384-format. This is a high-throughput instrument for cell-based assays to monitor Ca^2+ signaling associated with GPCRs and ion channels. Cells were seeded at a density of 5×10^4 cells/well in BioCoat poly-D-lysine coated, black wall, clear bottom 384-well plates (BD Biosciences, Franklin lakes, NJ, USA) and allowed to attach overnight in an incubator at 37° C. The cells were then washed twice with HBSS-HEPES buffer (Hanks' balanced salt solution without bicarbonate and phenol red, 20 mM HEPES, pH 7.4) using an ELx405 Select CW Microplate Washer (BioTek, Winooski, Vt., USA). After 60 min of dye-loading in the dark using the Ca^2+-sensitive dye Fluo-4AM (Invitrogen, Carlsbad, Calif., USA), at a final concentration of 2×10^−6M, the plates were washed 4 times with HBSS-HEPES buffer to remove excess dye and leaving 50 μl of buffer in each well. The plates were then placed in the FLIPR TETRA instrument and allowed to equilibrate at 37° C. AGN-211377 was added in a 25 μl volume to each well to give final concentrations of 0.1 μM, 0.3 μM, 1 μM, 3 μM, 10 μM, and 30 μM; or 0.067 μM, 0.1 μM, 0.2 μM, 0.3 μM, 0.67 μM, and 1 μM for cells over-expressing TP receptors. After 4.5 minutes, a 7-point serial dilution of the standard agonist for the corresponding receptor, in a 25 μl volume was injected at the final concentrations from 10^−11M to 10^−5M in 10-fold serial dilution increments for cells expressing human recombinant DP1, EP1, EP2, EP3, EP4, FP, and IP receptors. The dose range for the standard agonist for human recombinant TP receptors was from 10^−12 M to 10^−6 M. HBSS-HEPES buffer was used as the negative control for the standard agonists. Cells were excited with LED (light emitting diode) excitation at 470-495 nm and emission was measured through an emission filter at 515-575 nm. Assay plates were read for 3.5 minutes using the FLIPR^TETRA. The peak increase in fluorescence intensity was recorded for each well. On each plate, negative controls, dose response of positive controls, and co-treatments of antagonist-agonist for each dose were in triplicates.
(§5) Standard agonists were as follows: DP=BW 245C, EP1-EP4=PGE2, FP=17-phenyl-PGF2α, IP=Cicaprost, and TP=U-46619. […]

[4] = biological target: T4, human prostanoid EP3 receptor (Homo sapiens, UniProt P43115); assay: FLIPR Ca2+ signaling antagonist assay, EP3 receptor stable cell line; details: HEK-293 EBNA stable cell line; standard agonist PGE2; NA = inactive (no antagonism or Kb 10,000 nM); PAg, Ag not defined
T4 construct: expressed in transfected cells
T4 sequence (P43115 1-390): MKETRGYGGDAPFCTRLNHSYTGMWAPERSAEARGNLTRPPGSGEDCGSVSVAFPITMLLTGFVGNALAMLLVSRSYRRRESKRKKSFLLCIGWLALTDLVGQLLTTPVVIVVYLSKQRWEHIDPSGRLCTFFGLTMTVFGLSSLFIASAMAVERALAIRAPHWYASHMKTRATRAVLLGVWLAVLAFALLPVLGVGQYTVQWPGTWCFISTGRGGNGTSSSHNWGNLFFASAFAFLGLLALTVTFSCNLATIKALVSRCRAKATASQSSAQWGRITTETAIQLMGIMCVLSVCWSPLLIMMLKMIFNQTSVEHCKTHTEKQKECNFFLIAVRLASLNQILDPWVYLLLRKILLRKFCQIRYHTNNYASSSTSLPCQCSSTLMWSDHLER
Protocol: as §1, §2, §3, §4, §5

T1 sequence (P43088 whole entry): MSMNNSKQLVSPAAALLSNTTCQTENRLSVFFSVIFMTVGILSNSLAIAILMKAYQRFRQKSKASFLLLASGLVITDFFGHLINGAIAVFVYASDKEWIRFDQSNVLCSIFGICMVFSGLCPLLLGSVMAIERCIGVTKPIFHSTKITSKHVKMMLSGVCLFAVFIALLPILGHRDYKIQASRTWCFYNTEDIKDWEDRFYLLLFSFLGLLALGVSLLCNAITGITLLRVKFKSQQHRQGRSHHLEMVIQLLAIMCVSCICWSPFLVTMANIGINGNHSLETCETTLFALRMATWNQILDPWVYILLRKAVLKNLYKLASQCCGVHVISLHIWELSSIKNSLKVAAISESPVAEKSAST
T3 sequence (P43116 whole entry): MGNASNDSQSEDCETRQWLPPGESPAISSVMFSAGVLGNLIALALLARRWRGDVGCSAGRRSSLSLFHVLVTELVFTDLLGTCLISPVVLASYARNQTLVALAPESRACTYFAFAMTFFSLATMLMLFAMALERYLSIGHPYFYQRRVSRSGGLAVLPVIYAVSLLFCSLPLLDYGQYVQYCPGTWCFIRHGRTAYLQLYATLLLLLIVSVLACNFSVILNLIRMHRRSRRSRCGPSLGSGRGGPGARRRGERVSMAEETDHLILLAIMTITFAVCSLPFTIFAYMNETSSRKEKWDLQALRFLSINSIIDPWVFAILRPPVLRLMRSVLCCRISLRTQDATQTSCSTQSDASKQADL

| Kb [1] [nM] | Kb [2] [nM] | Kb [3] [µM] | Kb [4] [µM] | DP1 (FLIPR) Kb [2] | SMILES | FP (FLIPR) Kb [1] | EP3 (FLIPR) Kb [4] |
| --- | --- | --- | --- | --- | --- | --- | --- |
| 800 | 800 | 5.5 | 2.5 | – | Cc1cc(CCC(=O)NS(=O)(=O)c2ccccc2)nn1Cc1cc(Cl)ccc1OCc1ccc(Cl)cc1 [Example 24, N-(3-[1-(5-Chloro-2-(4-chlorobenzyloxy)benzyl)-5-methyl-1H-pyrazol-3-yl]-propionyl)benzenesulfonamide] | – | – |
| 90 | 200 | – | 0.5 | – | Cc1cc(CCC(=O)NS(=O)(=O)C(F)(F)F)nn1Cc1cc(Cl)ccc1OCc1ccc(Cl)cc1Cl [Example 27, N-(3-[1-(5-Chloro-2-(2,4-dichlorobenzyloxy)benzyl)-5-methyl-1H-pyrazol-3-yl]-propionyl)C,C,C-trifluoromethanesulfonamide] | – | – |
| 50 | 700 | – | 2.7 | – | Cc1cc(CCC(=O)O)nn1Cc1cc(Cl)ccc1C#CC1CCCC1 [Example 73, 3-{1-[5-Chloro-2-cyclopentylethynyl-benzyl]-5-methyl-1H-pyrazol-3-yl}-propionic acid] | – | – |
| 400 | 180 | – | 8.8 | – | CCCCC(CC)COc1ccc(Br)cc1Cn1nc(CCC(=O)O)cc1C (centres unmarked) [Example 6, 3-[1-(5-Bromo-2-(2-ethyl-hexyloxy)-benzyl)-5-methyl-1H-pyrazol-3-yl]-propionic acid] | – | – |
| 200 | 900 | – | 3.2 | – | Cc1cc(CC(C)(C)C(=O)O)nn1Cc1cc(Br)ccc1OCC1CCCC1 [Example 71, 3-{1-[5-Bromo-2-(2-cyclopentylmethoxy)-benzyl]-5-methyl-1H-pyrazol-3-yl}-2,2-dimethyl-propionic acid] | – | – |
| 360 | – | 1.4 | 5.7 | PAg | Cc1cc(CCC(=O)O)nn1Cc1cc(Cl)ccc1OCCCC(C)C [Example 40, 3-[1-(5-Chloro-2-(4-methylpentyloxy)benzyl)-5-methyl-1H-pyrazol-3-yl]-propionic acid] | – | – |
| 100 | 900 | – | 8.3 | – | Cc1cc(CCC(=O)O)nn1Cc1cc(Br)ccc1OCC1(C(F)(F)F)CCC1 [Example 13, 3-[1-(5-Bromo-2-(1-trifluoromethylcyclobutylmethoxy)-benzyl)-5-methyl-1H-pyrazol-3-yl]-propionic acid] | – | – |
| 140 | 500 | – | 7.1 | – | Cc1cc(CCC(=O)O)nn1Cc1cc(Cl)ccc1OCc1ccc(Cl)cc1Cl [Example 26, 3-[1-(5-Chloro-2-(2,4-dichlorobenzyloxy)benzyl)-5-methyl-1H-pyrazol-3-yl]-propionic acid] | – | – |
| 400 | 1330 | – | 4.5 | – | Cc1cc(CCC(=O)NS(=O)(=O)CC(F)(F)F)nn1Cc1cc(Cl)ccc1OCc1ccc(Cl)cc1 [Example 25, 2,2,2-trifluoroethanesulfonic acid-(3-[1-(5-Chloro-2-(4-chlorobenzyloxy)benzyl)-5-methyl-1H-pyrazol-3-yl]-propionyl)amide] | – | – |
| 90 | 110 | – | 6.4 | – | CCCC(C)COc1ccc(Br)cc1Cn1nc(CCC(=O)O)cc1C (centres unmarked) [Example 8, 3-[1-(5-Bromo-2-(2-methyl-pentyloxy)-benzyl)-5-methyl-1H-pyrazol-3-yl]-propionic acid] | – | – |
| 1500 | 350 | – | 1.6 | – | Cc1cc(CCC(=O)NS(=O)(=O)C(F)(F)F)nn1Cc1cc(Cl)ccc1CCC1CCCC1 [Example 75] | – | – |

| SMILES | Kb [1] [nM] | Kb [2] [nM] | Kb [3] [µM] | Kb [4] [µM] | DP1 (FLIPR) Kb [2] | FP (FLIPR) Kb [1] | EP3 (FLIPR) Kb [4] |
| --- | --- | --- | --- | --- | --- | --- | --- |
| CCC(CC)COc1ccc(Br)cc1Cn1nc(CCC(=O)O)cc1C(C)C [Example 55, 3-{1-[5-Bromo-2-(2-ethyl-butoxy)-benzyl]-5-isopropyl-1H-pyrazol-3-yl}-propionic acid] | 110 | 540 | – | 3.7 | – | – | – |
| CCC(CC)COc1ccc(Br)cc1Cn1nc(CCC(=O)O)cc1C(F)(F)F [Example 58, 3-{1-[5-Bromo-2-(2-ethyl-butoxy)-benzyl]-5-trifluororomethyl-1H-pyrazol-3-yl}-propionic acid] | – | 60 | – | – | – | PAg | PAg |
| CCCc1cc(CCC(=O)O)nn1Cc1cc(Br)ccc1OCC(CC)CC [Example 56, 3-{1-[5-Bromo-2-(2-ethyl-butoxy)-benzyl]-5-propyl-1H-pyrazol-3-yl}-propionic acid] | 900 | 800 | – | 2.7 | – | – | – |
| CCC(CC)COc1ccc(Br)cc1Cn1nc(CCC(=O)O)cc1C(C)(C)C [Example 57, 3-{1-[5-Bromo-2-(2-ethyl-butoxy)-benzyl]-5-tert-butyl-1H-pyrazol-3-yl}-propionic acid] | 500 | 1600 | – | 6.6 | – | – | – |
| CCC(CC)COc1ccc(Br)cc1Cn1nc(CCC(=O)NS(=O)(=O)C(F)(F)F)cc1C [Example 17, N-(3-{1-[5-Bromo-2-(2-ethyl-butoxy)-benzyl]-5-methyl-1H-pyrazol-3-yl}-propionyl)-C,C,C-trifluoro-methanesulfonamide] | 400 | 200 | – | 1 | – | – | – |
| Cc1cc(CCC(=O)NS(=O)(=O)C(F)(F)F)nn1Cc1cc(Br)ccc1OCC(C)C [Example 19, N-(3-{1-[5-Bromo-2-isobutoxybenzyl]-5-methyl-1H-pyrazol-3-yl}-propionyl)-C,C,C-trifluoro-methanesulfonamide] | 220 | 200 | – | 0.7 | – | – | – |
